This is an account of results in patent US12065436B2, “Cardiac sarcomere inhibitors” (Cytokinetics, Inc., priority 2018, dated 2024).

The test deals with bovine cardiac myofibrils (full-length cardiac myosin ATPase in the native sarcomere) (Bos taurus (Bovine), UniProt Q9BE39). The test can be described thus: Skinned bovine cardiac myofibril ATPase assay (PK/LDH-coupled). In kind it is biochemical. Conditions: Ca2+ activating to 75% of maximal rate; for CDMF75 IC15: concentration giving 15% inhibition; for IC50: read-out: CDMF75 IC50. The essentials: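 Triton-skinned bovine left-ventricle myofibrils (1 mg/mL) in PM 12 buffer (12 mM PIPES, 2 mM MgCl2, pH 6.8) with 50 μM ATP, 0.6 mM EGTA and CaCl2 set for 50% or 75% activation. Steady-state ATPase inhibition followed by PK/LDH-coupled NADH oxidation at 340 nm.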

Some results are limits rather than exact numbers.

Chain of bovine cardiac myofibrils (full-length cardiac myosin ATPase in the native sarcomere) (Q9BE39 whole entry): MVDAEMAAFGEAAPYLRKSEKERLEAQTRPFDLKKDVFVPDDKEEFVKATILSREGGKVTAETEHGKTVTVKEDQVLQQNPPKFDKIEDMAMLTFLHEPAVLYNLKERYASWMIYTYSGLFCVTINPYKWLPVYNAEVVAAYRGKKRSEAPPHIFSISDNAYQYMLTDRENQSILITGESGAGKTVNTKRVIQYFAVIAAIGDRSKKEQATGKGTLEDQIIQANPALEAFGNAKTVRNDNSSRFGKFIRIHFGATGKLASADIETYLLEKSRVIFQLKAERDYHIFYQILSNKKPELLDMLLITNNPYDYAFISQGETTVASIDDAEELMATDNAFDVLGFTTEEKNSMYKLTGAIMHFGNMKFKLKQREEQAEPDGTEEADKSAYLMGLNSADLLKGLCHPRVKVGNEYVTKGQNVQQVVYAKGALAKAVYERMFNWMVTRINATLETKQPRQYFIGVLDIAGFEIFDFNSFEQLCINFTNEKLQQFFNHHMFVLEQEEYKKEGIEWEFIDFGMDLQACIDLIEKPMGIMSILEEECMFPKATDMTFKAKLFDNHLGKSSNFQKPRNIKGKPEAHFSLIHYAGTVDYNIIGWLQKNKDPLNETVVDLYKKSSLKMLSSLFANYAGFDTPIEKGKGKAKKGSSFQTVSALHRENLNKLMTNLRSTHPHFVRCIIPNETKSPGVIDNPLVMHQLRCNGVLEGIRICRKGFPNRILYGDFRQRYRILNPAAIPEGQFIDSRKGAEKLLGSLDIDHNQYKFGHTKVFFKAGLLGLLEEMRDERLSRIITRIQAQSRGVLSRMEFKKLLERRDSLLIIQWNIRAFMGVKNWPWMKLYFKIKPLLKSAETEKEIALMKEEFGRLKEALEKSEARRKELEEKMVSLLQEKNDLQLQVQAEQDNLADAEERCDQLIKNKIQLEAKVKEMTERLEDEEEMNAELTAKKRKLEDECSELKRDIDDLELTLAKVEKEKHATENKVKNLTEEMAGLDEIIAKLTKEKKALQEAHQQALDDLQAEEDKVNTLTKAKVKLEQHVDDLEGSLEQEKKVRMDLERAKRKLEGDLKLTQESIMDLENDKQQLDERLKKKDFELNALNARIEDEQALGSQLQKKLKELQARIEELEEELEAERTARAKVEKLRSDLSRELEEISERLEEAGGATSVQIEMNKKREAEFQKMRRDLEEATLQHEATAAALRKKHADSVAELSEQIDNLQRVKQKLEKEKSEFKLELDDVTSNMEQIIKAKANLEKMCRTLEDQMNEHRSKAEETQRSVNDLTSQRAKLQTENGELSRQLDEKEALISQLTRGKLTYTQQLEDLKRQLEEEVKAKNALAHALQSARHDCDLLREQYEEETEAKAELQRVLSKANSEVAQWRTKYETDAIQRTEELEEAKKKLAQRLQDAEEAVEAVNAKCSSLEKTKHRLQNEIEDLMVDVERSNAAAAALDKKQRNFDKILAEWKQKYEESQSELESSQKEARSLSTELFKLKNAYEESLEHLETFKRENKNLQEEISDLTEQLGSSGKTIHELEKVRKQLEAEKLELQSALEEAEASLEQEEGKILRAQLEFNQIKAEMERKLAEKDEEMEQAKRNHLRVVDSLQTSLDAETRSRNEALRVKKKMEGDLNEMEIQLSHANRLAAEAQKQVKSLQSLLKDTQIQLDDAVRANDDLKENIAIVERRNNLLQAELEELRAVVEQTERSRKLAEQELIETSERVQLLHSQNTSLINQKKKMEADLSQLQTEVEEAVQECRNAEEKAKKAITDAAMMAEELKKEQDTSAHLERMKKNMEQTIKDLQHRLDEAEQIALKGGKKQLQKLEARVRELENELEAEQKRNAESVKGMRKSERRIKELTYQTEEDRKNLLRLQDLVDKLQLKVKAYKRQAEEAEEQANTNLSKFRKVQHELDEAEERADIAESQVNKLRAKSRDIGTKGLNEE
Chain of bovine cardiac myofibrils (full-length cardiac myosin ATPase in the native sarcomere) (P85100 whole entry partner): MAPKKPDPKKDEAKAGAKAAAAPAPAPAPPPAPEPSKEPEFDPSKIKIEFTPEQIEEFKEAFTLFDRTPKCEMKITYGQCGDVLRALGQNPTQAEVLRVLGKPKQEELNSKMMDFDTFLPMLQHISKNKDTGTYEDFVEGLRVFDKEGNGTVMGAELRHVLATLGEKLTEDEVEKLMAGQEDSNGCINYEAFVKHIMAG
Chain of bovine cardiac myofibrils (full-length cardiac myosin ATPase in the native sarcomere) (Q3SZE5 whole entry partner): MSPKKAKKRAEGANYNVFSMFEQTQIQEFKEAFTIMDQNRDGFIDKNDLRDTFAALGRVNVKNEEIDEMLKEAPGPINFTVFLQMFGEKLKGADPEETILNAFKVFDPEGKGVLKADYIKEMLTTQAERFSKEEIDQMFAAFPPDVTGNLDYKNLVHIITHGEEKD

By IC50 is commonly meant the concentration at which inhibition is half-maximal. Regarding `Cc1cc(-c2ccc3c(c2)OC[C@H]3NC(=O)c2ocnc2C)no1` [Compound 429, (S)-4-methyl-N-(6-(5-methylisoxazol-3-yl)-2,3-dihydrobenzofuran-3-yl)oxazole-5-carboxamide], the “CDMF75 IC15” value was 0.5 µM and the IC50 came to 1.5 µM.

With `C[C@@H](O)Cn1cc(C(=O)N[C@@H]2CCc3cc(-c4noc(C5CC5)n4)ccc32)cn1` [Compound 576, N-((R)-5-(5-cyclopropyl-1,2,4-oxadiazol-3-yl)-2,3-dihydro-1H-inden-1-yl)-1-((R)-2-hydroxypropyl)-1H-pyrazole-4-carboxamide], the “CDMF75 IC15” value was 3.5 µM and the half-maximal inhibitory concentration (IC50) stood at 15.2 µM.

Regarding `Cn1cc(C(=O)NC2COc3cc(-c4noc(C5CC5)n4)ccc32)cn1` (stereo not shown) [Compound 237, N-(6-(5-cyclopropyl-1,2,4-oxadiazol-3-yl)-2,3-dihydrobenzofuran-3-yl)-1-methyl-1H-pyrazole-4-carboxamide], the “CDMF75 IC15” value amounted to 1.1 µM and the IC50 came to 3.6 µM.

In the case of `CO[C@@H](C)c1nc(-c2ccc3c(c2)CC[C@H]3NC(=O)c2oncc2C)no1` [Compound 126, N-((R)-5-(5-((S)-1-methoxyethyl)-1,2,4-oxadiazol-3-yl)-2,3-dihydro-1H-inden-1-yl)-4-methylisoxazole-5-carboxamide], the “CDMF75 IC15” value is 1.6 µM and the IC50 was 5.7 µM.

Take `Cn1cc(C(=O)N[C@@H]2COc3cc(-c4noc(C(F)F)n4)ccc32)cn1` [Compound 218, (S)-N-(6-(5-(difluoromethyl)-1,2,4-oxadiazol-3-yl)-2,3-dihydrobenzofuran-3-yl)-1-methyl-1H-pyrazole-4-carboxamide]: the “CDMF75 IC15” value was determined as 0.5 µM and the IC50 came to 1.6 µM.

`Cc1ncoc1C(=O)NC1CCc2cc(-c3noc(C(F)F)n3)ccc21` (stereo not shown) [Compound 12, N-(5-(5-(difluoromethyl)-1,2,4-oxadiazol-3-yl)-2,3-dihydro-1H-inden-1-yl)-4-methyloxazole-5-carboxamide]: the “CDMF75 IC15” value was 0.6 µM and the IC50 is 2 µM.

Take `CCc1nc(-c2ccc3c(c2)CCC[C@H]3NC(=O)c2ccnn2C)no1` [Compound 526, (R)-N-(6-(5-ethyl-1,2,4-oxadiazol-3-yl)-1,2,3,4-tetrahydronaphthalen-1-yl)-1-methyl-1H-pyrazole-5-carboxamide]: the “CDMF75 IC15” value was 0.4 µM and the IC50 was 1.3 µM.

`CCc1nc(-c2ccc3c(c2)CC[C@H]3NC(=O)c2cnn(C3COC3)c2)no1` [Compound 470, (R)-N-(5-(5-ethyl-1,2,4-oxadiazol-3-yl)-2,3-dihydro-1H-inden-1-yl)-1-(oxetan-3-yl)-1H-pyrazole-4-carboxamide]: the “CDMF75 IC15” value was determined as 4.4 µM and the IC50 amounted to 16.8 µM.

In the case of `CCc1nc(-c2ccc3c(c2)CC[C@H]3NC(=O)c2nccn2C)no1` [Compound 579, (R)-N-(5-(5-ethyl-1,2,4-oxadiazol-3-yl)-2,3-dihydro-1H-inden-1-yl)-1-methyl-1H-imidazole-2-carboxamide], the “CDMF75 IC15” value is 1.2 µM and the concentration for half-maximal inhibition (IC50) is 5.1 µM.

As for `Cc1noc(-c2ccc3c(c2)OC[C@H]3NC(=O)c2ccnn2C)n1` [Compound 314, (S)-1-methyl-N-(6-(3-methyl-1,2,4-oxadiazol-5-yl)-2,3-dihydrobenzofuran-3-yl)-1H-pyrazole-5-carboxamide], the “CDMF75 IC15” value came to 0.7 µM and the IC50 was found to be 2.4 µM.

On to `Cn1nccc1C(=O)N[C@@H]1CCc2cc(-c3ncccn3)ccc21` [Compound 366, (R)-1-methyl-N-(5-(pyrimidin-2-yl)-2,3-dihydro-1H-inden-1-yl)-1H-pyrazole-5-carboxamide], for which the “CDMF75 IC15” value worked out at 8.6 µM and the IC50 is above 39.2 µM.

Turning to `CCc1nc(-c2ccc3c(c2)CC[C@H]3NC(=O)c2cn[nH]c2OC)no1` [Compound 486, (R)-N-(5-(5-ethyl-1,2,4-oxadiazol-3-yl)-2,3-dihydro-1H-inden-1-yl)-5-methoxy-1H-pyrazole-4-carboxamide], the “CDMF75 IC15” value worked out at 4.1 µM and the IC50 was 24.3 µM.

On to `Cc1nc(-c2ccc3c(c2)CC[C@H]3NC(=O)c2cnn(CCO)c2)no1` [Compound 520, (R)-1-(2-hydroxyethyl)-N-(5-(5-methyl-1,2,4-oxadiazol-3-yl)-2,3-dihydro-1H-inden-1-yl)-1H-pyrazole-4-carboxamide], for which the “CDMF75 IC15” value was 1.8 µM and the IC50 was found to be 8.1 µM.

In the case of `CCc1nc(-c2ccc3c(c2)OC[C@H]3NC(=O)c2cc(C)nn2C)no1` [Compound 231, (S)-N-(6-(5-ethyl-1,2,4-oxadiazol-3-yl)-2,3-dihydrobenzofuran-3-yl)-1,3-dimethyl-1H-pyrazole-5-carboxamide], the “CDMF75 IC15” value was 0.3 µM and the IC50 worked out at 1 µM.

For the compound `Cc1noc(-c2ccc3c(c2)CC[C@H]3NC(=O)c2cn(C)nc2C)n1` [Compound 201, (R)-1,3-dimethyl-N-(5-(3-methyl-1,2,4-oxadiazol-5-yl)-2,3-dihydro-1H-inden-1-yl)-1H-pyrazole-4-carboxamide], the “CDMF75 IC15” value is 1.4 µM and the IC50 stood at 5.4 µM.

For the compound `Cc1cc(C(=O)NC2CCc3cc(-c4noc(C)n4)ccc32)ccn1` (stereo not shown) [Compound 3, 2-methyl-N-(5-(5-methyl-1,2,4-oxadiazol-3-yl)-2,3-dihydro-1H-inden-1-yl)isonicotinamide], the “CDMF75 IC15” value came to 1.8 µM and the IC50 was determined as 7 µM.

Regarding `Cc1nn(C)cc1C(=O)NC1CCc2cc(-c3noc(CO)n3)ccc21` (stereo not shown) [Compound 79, N-(5-(5-(hydroxymethyl)-1,2,4-oxadiazol-3-yl)-2,3-dihydro-1H-inden-1-yl)-1,3-dimethyl-1H-pyrazole-4-carboxamide], the “CDMF75 IC15” value was determined as 4.6 µM and the IC50 amounted to 22.7 µM.

For `COCc1nc(-c2ccc3c(c2)OC[C@H]3NC(=O)c2cc(C)nn2C)no1` [Compound 227, (S)-N-(6-(5-(methoxymethyl)-1,2,4-oxadiazol-3-yl)-2,3-dihydrobenzofuran-3-yl)-1,3-dimethyl-1H-pyrazole-5-carboxamide], the “CDMF75 IC15” value is 0.7 µM and the IC50 is 2.2 µM.

In the case of `Cc1ncoc1C(=O)N[C@@H]1COc2cc(-c3noc(C(F)F)n3)ccc21` [Compound 453, (S)-N-(6-(5-(difluoromethyl)-1,2,4-oxadiazol-3-yl)-2,3-dihydrobenzofuran-3-yl)-4-methyloxazole-5-carboxamide], the “CDMF75 IC15” value stood at 0.2 µM and the IC50 was 0.7 µM.

In the case of `O=C1C[C@H](C(=O)N[C@@H]2CCc3cc(-c4noc(C5CC5)n4)ccc32)N1` [Compound 315, (R)-N-((R)-5-(5-cyclopropyl-1,2,4-oxadiazol-3-yl)-2,3-dihydro-1H-inden-1-yl)-4-oxoazetidine-2-carboxamide], the “CDMF75 IC15” value amounted to 6.1 µM and the IC50 was 26.4 µM.

On to `Cc1cc(C(=O)N[C@@H]2COc3cc(-c4cc(C)on4)ccc32)ccn1` [Compound 430, (S)-2-methyl-N-(6-(5-methylisoxazol-3-yl)-2,3-dihydrobenzofuran-3-yl)isonicotinamide], for which the “CDMF75 IC15” value was 1.0 µM and the IC50 is 3.2 µM.

On to `[2H]C([2H])([2H])c1nc(-c2ccc3c(c2)OC[C@H]3NC(=O)c2ccnn2C)no1` [Compound 262, (S)-1-methyl-N-(6-(5-(methyl-d3)-1,2,4-oxadiazol-3-yl)-2,3-dihydrobenzofuran-3-yl)-1H-pyrazole-5-carboxamide], for which the “CDMF75 IC15” value was 0.7 µM and the IC50 worked out at 1.9 µM.

`CCc1nc(-c2ccc3c(c2)CC[C@H]3NC(=O)c2ccn(CCO)n2)no1` [Compound 608, (R)-N-(5-(5-ethyl-1,2,4-oxadiazol-3-yl)-2,3-dihydro-1H-inden-1-yl)-1-(2-hydroxyethyl)-1H-pyrazole-3-carboxamide]: the “CDMF75 IC15” value was 1.2 µM and the IC50 came out at 4.6 µM.

With `Cc1nc(-c2ccc3c(c2)OC[C@H]3NC(=O)c2conc2C)no1` [Compound 347, (S)-3-methyl-N-(6-(5-methyl-1,2,4-oxadiazol-3-yl)-2,3-dihydrobenzofuran-3-yl)isoxazole-4-carboxamide], the “CDMF75 IC15” value came to 0.5 µM and the half-maximal inhibitory concentration (IC50) worked out at 1.6 µM.

Take `Cc1cc(C(=O)N[C@@H]2CCc3cc(-c4noc(C(F)F)n4)ccc32)n(C)n1` [Compound 101, (R)-N-(5-(5-(difluoromethyl)-1,2,4-oxadiazol-3-yl)-2,3-dihydro-1H-inden-1-yl)-1,3-dimethyl-1H-pyrazole-5-carboxamide]: the “CDMF75 IC15” value worked out at 0.3 µM and the IC50 is 1.1 µM.

In the case of `Cc1cnoc1C(=O)N[C@@H]1CCc2cc(-c3noc(C4CC4)n3)ccc21` [Compound 115, (R)-N-(5-(5-cyclopropyl-1,2,4-oxadiazol-3-yl)-2,3-dihydro-1H-inden-1-yl)-4-methylisoxazole-5-carboxamide], the “CDMF75 IC15” value is 0.3 µM and the 50% inhibitory concentration (IC50) is 0.9 µM.

With `O=C(N[C@@H]1CCc2cc(-c3noc(C(F)F)n3)ccc21)N1CCCC1` [Compound 300, (R)-N-(5-(5-(difluoromethyl)-1,2,4-oxadiazol-3-yl)-2,3-dihydro-1H-inden-1-yl)pyrrolidine-1-carboxamide], the “CDMF75 IC15” value was found to be 12.3 µM and the IC50 was above 39.2 µM.

As to `O=C(N[C@@H]1CCc2cc(-c3noc(C(F)F)n3)ccc21)C1CCC1` [Compound 309, (R)-N-(5-(5-(difluoromethyl)-1,2,4-oxadiazol-3-yl)-2,3-dihydro-1H-inden-1-yl)cyclobutanecarboxamide], the “CDMF75 IC15” value was 39.2 µM and the IC50 was above 39.2 µM.

As for `[2H]C([2H])([2H])c1nc(-c2ccc3c(c2)OC[C@H]3NC(=O)c2cnn(C)c2)no1` [Compound 265, (S)-1-methyl-N-(6-(5-(methyl-d3)-1,2,4-oxadiazol-3-yl)-2,3-dihydrobenzofuran-3-yl)-1H-pyrazole-4-carboxamide], the “CDMF75 IC15” value stood at 1.0 µM and the IC50 was determined as 3.4 µM.
